Experimental data published in patent publication US20240124408A1 (Sanofi, priority 2020, published 2024).
Where a name gives a salt, the structure may show the parent alone.

Key:
Type in all cases: cell-based
[1] = target: T1, human TRPM8 (Homo sapiens, UniProt Q7Z2W7); assay: In vitro human TRPM8 fluorescence calcium flux assay (recombinant CHO cells, Fluo4-AM, FDSS6000); details: recombinant CHO cells expressing human TRPM8; menthol-related EC50, normalized to 100 μM menthol
T1 construct: expressed in transfected cells; host or cells: CHO (p658 mammalian expression vector)
Procedure, shortened: (§1)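 CHO cells stably expressing pig or human TRPM8, loaded with 2 μM Fluo4-AM in HBSS/20 mM HEPES/0.1% BSA/2.5 mM probenecid for 1 h at RT. Intracellular calcium read kinetically for 3 min after compound addition. EC50 from sixteen-point curves, normalized to 100 μM menthol maximal response.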

[2] = target: T2, pig TRPM8 (Sus scrofa, UniProt F1SM15); assay: In vitro pig TRPM8 automated patch-clamp assay (SyncroPatch 384PE, CHO cells); details: CHO cells expressing pig TRPM8, 28° C.
T2 construct: expressed in transfected cells; host or cells: CHO (pcDNA5/FRT/TO vector; hygromycin B and blasticidin selection)
Method: (§2) In Vitro Pig and Human TRPM8 Automated Patch-Clamp Assays
(§3) Automated whole-cell recordings of compound effects were performed on the SyncroPatch 384PE (Nanion Technologies, Munich, Germany) incorporated into a Biomek FX pipetting robot (Beckman Coulter, Jersey City, NJ, USA) using the same engineered CHO cell lines expressing human or pig TRPM8 channels. Data acquisition and analysis were performed with the proprietary software PatchControl 384 and DataControl 384, respectively (Nanion Technologies, Munich, Germany). All recordings were carried out using planar borosilicate glass patch clamp chips in a 384-microtiter plate format with patch hole resistances of 2-4 MO. For recordings, standard intracellular solution was used containing (in mM): 130 KF, 4 NaCl, 1 MgCl2, 0.5 CaCl2, 10 HEPES and 10 EGTA/KOH (pH 7.2) and standard extracellular solution contained in mM: 150 NaCl, 4 KCl, 0.5 CaCl2, 1 MgCl2 and 10 HEPES (pH 7.3).
(§4) Prior to the electrophysiological measurements, cells were harvested using Accutase (GIBCO, Fisher Scientific) and resuspended in warmed extracellular solution. The cell suspension was kept in the dedicated cell reservoir at 28° C. at a 1 million/ml cell density and shaken at 500 rounds per min (rpm). Experiments were performed at 28° C. throughout. Cells were distributed in high resistance 4-holes-per-well Nanion chips where they were caught on the patch holes by application of a −80 mbar pressure. The cell membrane was ruptured to obtain the whole-cell configuration with a pressure pulse of −250 mbar for 2 seconds. Voltage protocols were constructed using PatchControl 384. The cells were held at a holding potential of −60 mV and TRPM8 currents were recorded using a ramp protocol from −80 to +80 mV every 5 seconds before and after compound addition. Resulting currents were recorded at both −80 and +80 mV and current kinetics were exported and analyzed. From each plate, control wells with 200 μM menthol were recorded to validate the assay. One concentration of compound was applied to each of the other wells. For each concentration, compound response was determined by subtracting the baseline current recorded before compound addition from the maximum peak elicited currents obtained after compound addition. Then, each compound response was normalized to control condition without compound and maximum current (Emax) obtained for each compound. Nanion DataControl 384 software plotted current response for each compound concentration and was able to calculate an EC50 value for each active compound.

[3] = target: T2, pig TRPM8; assay: In vitro pig TRPM8 fluorescence calcium flux assay (recombinant CHO cells, Fluo4-AM, FDSS6000); details: recombinant CHO cells expressing pig TRPM8; menthol-related EC50, normalized to 100 μM menthol
Procedure, shortened: as §1

[4] = target: T1, human TRPM8; assay: In vitro human TRPM8 automated patch-clamp assay (SyncroPatch 384PE, CHO cells); details: CHO cells expressing human TRPM8, 28° C.
Method: as §2, §3, §4

T2 sequence (F1SM15 1-1104): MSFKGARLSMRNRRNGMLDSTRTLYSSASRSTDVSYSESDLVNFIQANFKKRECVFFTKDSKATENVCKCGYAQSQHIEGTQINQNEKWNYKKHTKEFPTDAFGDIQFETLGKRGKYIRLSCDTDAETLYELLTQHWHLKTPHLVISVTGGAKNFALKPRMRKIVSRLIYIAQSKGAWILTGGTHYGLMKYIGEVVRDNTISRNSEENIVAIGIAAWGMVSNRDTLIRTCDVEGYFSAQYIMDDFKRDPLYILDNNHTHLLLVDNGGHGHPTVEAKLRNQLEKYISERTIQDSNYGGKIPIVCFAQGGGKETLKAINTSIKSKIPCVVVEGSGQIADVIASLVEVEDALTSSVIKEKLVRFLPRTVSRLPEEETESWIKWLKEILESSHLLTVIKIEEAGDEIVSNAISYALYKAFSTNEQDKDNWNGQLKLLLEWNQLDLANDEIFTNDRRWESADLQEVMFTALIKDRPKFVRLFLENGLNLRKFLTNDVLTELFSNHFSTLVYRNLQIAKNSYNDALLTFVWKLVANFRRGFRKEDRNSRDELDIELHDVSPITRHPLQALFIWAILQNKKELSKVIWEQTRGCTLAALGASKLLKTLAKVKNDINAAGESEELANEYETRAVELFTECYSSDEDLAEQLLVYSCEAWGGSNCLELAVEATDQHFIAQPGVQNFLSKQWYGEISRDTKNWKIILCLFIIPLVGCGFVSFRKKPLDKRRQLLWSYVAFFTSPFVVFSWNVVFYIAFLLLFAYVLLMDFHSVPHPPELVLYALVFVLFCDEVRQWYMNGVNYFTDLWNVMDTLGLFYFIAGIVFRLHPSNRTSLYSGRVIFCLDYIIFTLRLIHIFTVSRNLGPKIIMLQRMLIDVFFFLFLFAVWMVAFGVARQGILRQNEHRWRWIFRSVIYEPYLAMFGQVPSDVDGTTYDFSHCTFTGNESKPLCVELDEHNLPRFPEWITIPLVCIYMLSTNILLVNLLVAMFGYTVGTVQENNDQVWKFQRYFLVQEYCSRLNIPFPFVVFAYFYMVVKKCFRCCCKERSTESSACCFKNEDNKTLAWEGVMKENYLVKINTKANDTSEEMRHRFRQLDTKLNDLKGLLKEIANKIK
T1 sequence (Q7Z2W7 whole entry): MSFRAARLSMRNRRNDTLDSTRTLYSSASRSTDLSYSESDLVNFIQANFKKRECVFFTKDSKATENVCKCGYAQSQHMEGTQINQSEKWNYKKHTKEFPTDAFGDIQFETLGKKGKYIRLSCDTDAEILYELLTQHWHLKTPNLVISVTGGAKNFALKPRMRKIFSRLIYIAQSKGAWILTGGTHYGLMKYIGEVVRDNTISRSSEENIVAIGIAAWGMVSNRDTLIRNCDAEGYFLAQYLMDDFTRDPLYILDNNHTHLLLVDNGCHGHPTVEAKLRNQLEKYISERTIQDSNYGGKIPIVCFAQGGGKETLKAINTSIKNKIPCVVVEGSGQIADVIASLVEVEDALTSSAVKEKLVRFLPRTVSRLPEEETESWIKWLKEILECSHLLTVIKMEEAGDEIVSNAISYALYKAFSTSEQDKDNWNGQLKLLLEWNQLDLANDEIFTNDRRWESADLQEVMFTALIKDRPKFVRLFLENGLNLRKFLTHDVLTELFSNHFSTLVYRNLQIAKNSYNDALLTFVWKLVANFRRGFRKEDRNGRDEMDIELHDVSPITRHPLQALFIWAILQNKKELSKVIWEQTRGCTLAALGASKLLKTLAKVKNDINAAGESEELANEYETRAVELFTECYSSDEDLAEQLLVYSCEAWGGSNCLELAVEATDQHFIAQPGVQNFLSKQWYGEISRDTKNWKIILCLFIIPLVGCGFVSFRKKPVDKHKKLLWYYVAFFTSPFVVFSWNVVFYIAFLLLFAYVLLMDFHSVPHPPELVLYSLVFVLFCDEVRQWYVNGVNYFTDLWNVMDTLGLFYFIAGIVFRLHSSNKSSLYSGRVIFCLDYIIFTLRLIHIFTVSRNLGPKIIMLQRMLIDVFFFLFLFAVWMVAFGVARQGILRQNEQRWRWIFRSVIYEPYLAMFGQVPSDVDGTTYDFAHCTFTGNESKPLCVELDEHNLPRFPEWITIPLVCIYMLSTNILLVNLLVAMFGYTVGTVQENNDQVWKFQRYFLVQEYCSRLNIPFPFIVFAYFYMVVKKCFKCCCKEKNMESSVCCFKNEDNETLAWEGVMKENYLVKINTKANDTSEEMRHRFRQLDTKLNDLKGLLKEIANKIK

EC50 [1] [nM]	EC50 [2] [nM]	EC50 [3] [nM]	EC50 [4] [nM]	Structure (SMILES)
16.1	480	16.4	620	CC(C)[C@@H]1CC[C@@H](C)C[C@@]1(O)C(=O)NCC(O)c1ccccc1Cl (stereo partly drawn) [Example 160, (1S,2S,5R)-N-[2-(2-chlorophenyl)-2-hydroxy-ethyl]-1-hydroxy-2-isopropyl-5-methyl-cyclohexanecarboxamide]
7	940	3	1900	CC(C)[C@@H]1CC[C@@H](C)C[C@@]1(O)C(=O)NCC(O)c1ccc(F)cc1 (stereo partly drawn) [Example 158, (1S,2S,5R)-N-[2-(4-fluorophenyl)-2-hydroxy-ethyl]-1-hydroxy-2-isopropyl-5-methyl-cyclohexanecarboxamide]
8.8	4100	6.3	2400	CC(C)[C@@H]1CC[C@@H](C)C[C@@]1(O)C(=O)NCCc1ccccc1OCC(O)CO (stereo partly drawn) [Example 9, (1S,2S,5R)—N-(2-(2,3-dihydroxypropoxy)phenethyl)-1-hydroxy-2-isopropyl-5-methylcyclohexane-1-carboxamide]
65	4310	38	4200	COC(=O)COc1cccc(C(O)CNC(=O)[C@]2(O)C[C@H](C)CC[C@H]2C(C)C)c1 (stereo partly drawn) [Example 33, methyl 2-(3-(1-hydroxy-2-((1S,2S,5R)-1-hydroxy-2-isopropyl-5-methylcyclohexane-1-carboxamido)ethyl)phenoxy)acetate]
1	862	2	183	CC(C)[C@@H]1CC[C@@H](C)C[C@@]1(O)C(=O)NCC(C(=O)OCCN)c1ccccc1 (stereo partly drawn) [Example 71, 2-aminoethyl 3-((1S,2S,5R)-1-hydroxy-2-isopropyl-5-methylcyclohexane-1-carboxamido)-2-phenylpropanoate hydrochloride]
3.7	1100	5.5	1800	COC(=O)[C@H](N)COc1cccc(CCNC(=O)[C@]2(O)C[C@H](C)CC[C@H]2C(C)C)c1 [Example 26, methyl O-(3-(2-((1S,2S,5R)-1-hydroxy-2-isopropyl-5-methylcyclohexane-1-carboxamido)ethyl)phenyl)-D-serinate]
90.3	3250	47.6	3300	CC(C)[C@@H]1CC[C@@H](C)C[C@@]1(O)C(=O)NCC(CO)c1ccccc1 (single isomer, unassigned) [Example 89]
3.7	52	3.8	66	CC(C)[C@@H]1CC[C@@H](C)C[C@@]1(O)C(=O)NCC(NC(=O)[C@H](C)N)c1ccccc1 (single isomer, unassigned) [Example 182]
3	507	3	1230	CC(C)[C@@H]1CC[C@@H](C)C[C@@]1(O)C(=O)NCC(O)c1cccc(O)c1 (stereo partly drawn) [Example 32, (1S,2S,5R)-1-hydroxy-N-(2-hydroxy-2-(3-hydroxyphenyl)ethyl)-2-isopropyl-5-methylcyclohexane-1-carboxamide]
250	5400	311	1440	CCOC(=O)c1cccc(CCNC(=O)[C@]2(O)C[C@H](C)CC[C@H]2C(C)C)c1 [Example 28, ethyl 3-(2-((1S,2S,5R)-1-hydroxy-2-isopropyl-5-methylcyclohexane-1-carboxamido)ethyl)benzoate]
34.3	1040	21.2	2200	CC(C)[C@@H]1CC[C@@H](C)C[C@@]1(O)C(=O)NCC(C)(O)c1ccccc1 (stereo partly drawn) [Example 164, (1S,2S,5R)-1-hydroxy-N-(2-hydroxy-2-phenyl-propyl)-2-isopropyl-5-methyl-cyclohexanecarboxamide]
12	3290	4	1410	CC(C)[C@@H]1CC[C@@H](C)C[C@@]1(O)C(=O)NCC(=O)c1cccc(F)c1F [Example 142, (1S,2S,5R)-N-[2-(2,3-difluorophenyl)-2-oxo-ethyl]-1-hydroxy-2-isopropyl-5-methyl-cyclohexanecarboxamide]
4	1120	8	690	CC(C)[C@@H]1CC[C@@H](C)C[C@@]1(O)C(=O)NCC(C(=O)OCC(C)(C)N)c1ccccc1 (stereo partly drawn) [Example 73, 2-amino-2-methylpropyl 3-((1S,2S,5R)-1-hydroxy-2-isopropyl-5-methylcyclohexane-1-carboxamido)-2-phenylpropanoate hydrochloride]
3	1510	2.1	1430	CC(C)[C@@H]1CC[C@@H](C)C[C@@]1(O)C(=O)NCCc1cccc(CO)c1 [Example 15, (1S,2S,5R)-1-hydroxy-N-(3-(hydroxymethyl)phenethyl)-2-isopropyl-5-methylcyclohexane-1-carboxamide]
16	2390	16	1200	CC(C)[C@@H]1CC[C@@H](C)C[C@@]1(O)C(=O)N[C@H](CO)Cc1ccccc1 [Example 146, (1S,2S,5R)-N-[(1S)-1-benzyl-2-hydroxy-ethyl]-1-hydroxy-2-isopropyl-5-methyl-cyclohexanecarboxamide]
42.8	2440	21.7	3800	COC(=O)c1cccc(CCNC(=O)[C@]2(O)C[C@H](C)CC[C@H]2C(C)C)c1 [Example 107, methyl 3-(2-((1S,2S,5R)-1-hydroxy-2-isopropyl-5-methylcyclohexane-1-carboxamido)ethyl)benzoate]
7	1070	6	500	CC(C)[C@@H]1CC[C@@H](C)C[C@@]1(O)C(=O)NCC1(O)CCc2ccccc21 (stereo partly drawn) [Example 23, (1S,2S,5R)-1-hydroxy-N-((1-hydroxy-2,3-dihydro-1H-inden-1-yl)methyl)-2-isopropyl-5-methylcyclohexane-1-carboxamide]
3.3	967	2.4	700	CC(C)[C@@H]1CC[C@@H](C)C[C@@]1(O)C(=O)NCC(=O)c1ccccc1F [Example 85, (1S,2S,5R)—N-(2-(2-fluorophenyl)-2-oxoethyl)-1-hydroxy-2-isopropyl-5-methylcyclohexane-1-carboxamide]
2.9	515	2.7	230	CC(C)[C@@H]1CC[C@@H](C)C[C@@]1(O)C(=O)NCC1(O)CCc2ccc(Cl)cc21 (stereo partly drawn) [Example 145, (1S,2S,5R)-N-[(6-chloro-1-hydroxy-indan-1-yl)methyl]-1-hydroxy-2-isopropyl-5-methyl-cyclohexanecarboxamide]
42.3	7740	15.2	5900	CC(C)[C@@H]1CC[C@@H](C)C[C@@]1(O)C(=O)NCCc1ccccn1 [Example 125, (1S,2S,5R)-1-hydroxy-2-isopropyl-5-methyl-N-[2-(2-pyridyl)ethyl]cyclohexanecarboxamide]
84.5	5160	57.6	5500	COc1cc(CO)ccc1OC(=O)CNC(=O)[C@]1(O)C[C@H](C)CC[C@H]1C(C)C [Example 79, 4-(hydroxymethyl)-2-methoxyphenyl ((1S,2S,5R)-1-hydroxy-2-isopropyl-5-methylcyclohexane-1-carbonyl)glycinate]
49.3	2000	67.8	2800	COC(=O)CCc1ccccc1CCNC(=O)[C@]1(O)C[C@H](C)CC[C@H]1C(C)C [Example 93, methyl 3-(2-(2-((1S,2S,5R)-1-hydroxy-2-isopropyl-5-methylcyclohexane-1-carboxamido)ethyl)phenyl)propanoate]
